These results are taken from ChEMBL document CHEMBL4251629, “BODIPYs to the rescue: Potential applications in photodynamic inactivation” (2018).

The subject of test [1] is Candida albicans. Kind of test: Photodynamic antifungal activity against Candida albicans ATCC 90028 assessed as log reduction in viable cells at 1 uM in presence of 118 J/cm2 irradiation. It is filed as functional.
For test [2], the system named is Vesicular stomatitis virus. Nature of the test: Photodynamic antiviral activity against vesicular stomatitis virus NJ infected in African green monkey Vero cells assessed as log reduction in viable cells at 0.5 uM in presence of 118 J/cm2 irradiation. The class given is functional, Vesicular stomatitis New Jersey virus.
The subject of test [3] is Mycolicibacterium smegmatis. Nature of the test: Photodynamic antibacterial activity against Mycobacterium smegmatis MC2 155 assessed as log reduction in viable cells at 0.5 uM in presence of 118 J/cm2 irradiation. It is filed as functional, str. MC2 155.
Test [4] has as its system Human adenovirus 5. Kind of test: Photodynamic antiviral activity against Human adenovirus 5 infected in African green monkey Vero cells assessed as log reduction in viable cells at 5 uM in presence of 118 J/cm2 irradiation. The class given is functional.
The subject of test [5] is dengue virus type 1. Nature of the test: Photodynamic antiviral activity against Dengue virus 1 infected in African green monkey Vero cells assessed as log reduction in viable cells at 0.1 uM in presence of 118 J/cm2 irradiation. The class given is functional.
Test [6] deals with Pseudomonas aeruginosa. Kind of test: Photodynamic antibacterial activity against Pseudomonas aeruginosa PAO1 assessed as log reduction in viable cells at 2.5 uM preincubated for 30 mins followed by 171 J/cm'2 irradiation for 1 hr by confocal laser scanning microscopy. The class given is functional.
For test [7], the system named is Nakaseomyces glabratus. Kind of test: Photodynamic antifungal activity against Candida glabrata ATCC 15545 assessed as log reduction in viable cells at 1 uM in presence of 118 J/cm2 irradiation. It is filed as functional.
Test [8] relates to Cryptococcus neoformans. Kind of test: Photodynamic antifungal activity against Cryptococcus neoformans ATCC 6453 assessed as log reduction in viable cells at 0.5 uM in presence of 118 J/cm2 irradiation. It is filed as functional.
Test [9] concerns Escherichia coli. Kind of test: Photodynamic antibacterial activity against ROS-induced stressed Escherichia coli ATCC 25922 assessed as log reduction in viable cells at 10 uM preincubated for 1 hr followed by 9.36 J/cm2 irradiation for 2 hrs mins by fluorescence microscopy. The class given is functional.
Test [10] has as its system Bacillus thuringiensis. Nature of the test: Photodynamic antibacterial activity against Bacillus thuringiensis NRS 1124 ATCC 19268 assessed as log reduction in viable cells at 10 uM preincubated for 20 mins followed by 180 J/cm2 irradiation for 60 mins by fluorescence microscopy. The class given is functional.
Test [11] concerns Escherichia coli. Kind of test: Photodynamic antibacterial activity against Escherichia coli DH5alpha assessed as log reduction in viable cells 10 uM preincubated for 20 mins followed by 180 J/cm2 irradiation for 60 mins by fluorescence microscopy. It is filed as functional, DH5[alpha].
Test [12] has as its system Klebsiella pneumoniae. Nature of the test: Photodynamic antibacterial activity against Klebsiella pneumoniae subsp. pneumoniae ATCC 33495 assessed as log reduction in viable cells at 10 uM preincubated for 20 mins followed by 180 J/cm2 irradiation for 60 mins by fluorescence microscopy. It is filed as functional.
The subject of test [13] is Staphylococcus aureus. Nature of the test: Photodynamic antibacterial activity against Staphylococcus aureus NRS11 assessed as log reduction in viable cells at 10 uM preincubated for 20 mins followed by 180 J/cm2 irradiation for 60 mins by fluorescence microscopy. The class given is functional.
Test [14] has as its system Staphylococcus aureus. Nature of the test: Photodynamic antibacterial activity against Staphylococcus aureus ATCC 25923 assessed as log reduction in viable cells at 1 uM preincubated for 30 mins followed by immediate irradiation at 21 J/cm2 in presence of 50 mM KI by fluorescence microscopy. It is filed as functional.
For test [15], the system named is Candida albicans. Nature of the test: Photodynamic antibacterial activity against Candida albicans PC31 assessed as log reduction in viable cells at 5 uM preincubated for 30 mins followed by immediate irradiation at 126 J/cm2 in presence of 50 mM KI by fluorescence microscopy. The class given is functional.
For test [16], the system named is Escherichia coli. Kind of test: Photodynamic antibacterial activity against Escherichia coli EC7 assessed as log reduction in viable cells at 5 uM preincubated for 30 mins followed by immediate irradiation at 63 J/cm2 in presence of 50 mM KI by fluorescence microscopy. It is filed as functional.
Test [17] relates to Escherichia coli. Kind of test: Photodynamic antibacterial activity against ROS-induced stressed Escherichia coli ATCC 25922 assessed as log reduction in viable cells at 10 uM preincubated for 30 mins followed by 3.6 J/cm2 irradiation for 1 hr mins by fluorescence microscopy. The class given is functional.

Regarding `CC1=C(I)C(C)=[N+]2C1C(c1cc[n+](C)cc1)c1c(C)c(I)c(C)n1[B-]2(F)F` (configuration not stated), the “log(activity)” value is listed as 5 in test [1]; 5 in test [2]; 3 in [3]; 2 in test [4]; 6 in [5]; 7 in test [6]. Moreover, the entries for the “log(activity)” value in [7] and in test [8] were 3 and 5, respectively.
Regarding `CC1=C(Br)C(C)=[N+]2C1C(CC1(C)CCc3c(C)c(O)c(C)c(C)c3O1)c1c(C)c(Br)c(C)n1[B-]2(F)F` (configuration not stated), the “log(activity)” value in test [9] came to 5.5.
Regarding `CC1=C(I)C(C)=[N+]2C1C(c1cc(CN(Cc3ccccn3)Cc3ccccn3)cc(CN(Cc3ccccn3)Cc3ccccn3)c1)c1c(C)c(I)c(C)n1[B-]2(F)F` (configuration not stated), the “log(activity)” value was 4.5 in test [10], 3.5 in [11], 2.2 in test [12] and 4.5 in test [13].
In the case of `CC1=CC(C)=[N+]2C1C(c1ccc([N+](C)(C)C)cc1)c1c(C)cc(C)n1[B-]2(F)F` (configuration not stated), the “log(activity)” value is 5 in [14], 5.5 in [15] and 3.5 in test [16].
As for `CC(=O)OCC1c2c(C)c(Br)c(C)n2[B-](F)(F)[N+]2=C(C)C(Br)=C(C)C12` (configuration not stated), in test [17], the “log(activity)” value came out at 5.5.
Consider `CC(=O)OCC1c2c(C)c(I)c(C)n2[B-](F)(F)[N+]2=C(C)C(I)=C(C)C12` (configuration not stated), for which the “log(activity)” value in test [17] worked out at 5.5.
For `CC1=C(C)C2(OO)OC(C)(CC3c4c(C)c(Br)c(C)n4[B-](F)(F)[N+]4=C(C)C(Br)=C(C)C34)CCC2=C(C)C1=O` (configuration not stated), in test [9], the “log(activity)” value came to 5.5.
As for `CC1=CC(C)=[N+]2C1C(c1ccc(OCCC[N+](C)(C)C)cc1)c1c(C)cc(C)n1[B-]2(F)F` (configuration not stated), the results for the “log(activity)” value in test [14], in test [15] and in [16] were 4.5, 3.5 and 6.5, respectively.
